Measured values published in patent publication US8309550B2, “Kinase inhibitors and their use as pharmaceutical agents” (Shanghai Genomics, Inc., priority 2011, dated 2012).

Legend:
Assay type in all cases: biochemical
CDK1/cyclinB = biological target: T1, CDK1/cyclinB (Homo sapiens, UniProt P06493); test: Z'-LYTE kinase assay CDK1/cyclinB; settings: read-out: Kinase inhibition, IC50 CDK1B
T1 construct: purchased Invitrogen PV3292
Method: (§1) Kinase assays. The compounds from the example above were tested for their ability to inhibit kinases. Recombinant human CDK2/cyclinA (PV3267), CDK1/cyclinB (PV3292), CDK5/p35 (PV3000) and Aurora A (PV3612) were purchased from Invitrogen (Carlsbad, Calif., USA). Kinase dosage and Z′-LYTE™ substrate for each kinase assay is as follows: CDK2/cyclinA-8 ng/reaction, Ser/Thr 12 Peptide; CDK1/cyclinB-0.8 ng/reaction, Ser/Thr 12 Peptide, CDK5/p35-0.8 ng/reaction, Ser/Thr 12 Peptide, and Aurora A-16 ng/reaction, Ser/Thr 1 Peptide. All enzymatic assays were performed using Z′-LYTE™ Kinase Assay Kits and were carried out following protocols provided by Invitrogen. To prepare stock solutions, compounds were dissolved at 10 mM in 100% DMSO and stored at 4° C. in amber glass vials. Enzyme reactions were initiated by adding recombinant enzyme and Z′-LYTE™ Ser/Thr peptide substrate and ATP mixture to 384-well plates containing diluted test compounds. Kinase and corresponding peptide substrate were incubated for 1 hr at room temperature in the presence of varying amounts of test compound with reaction buffer (20 μM ATP, […] [pH 7.5], 5 mM MgCl2, 0.5 mM EGTA, 0.005% Brij-35). Development buffer was added and incubated for another one hour at room temperature. Reactions were terminated by addition of stop buffer, and fluorescence emission intensity ratio 445 nm/520 nm (excited at 400 nm) was quantified by VICTOR-3 Multilabel Reader (Perkin-Elmer, Waltham, Mass., USA). Phosphorylation was calculated from the emission ratio. IC50 was determined using Sigmoid curve-fitting software Origin 6.0 (MicroCal, LLC, Northampton, Mass., USA).

CDK5/p35 = biological target: T2, CDK5/p35 (Homo sapiens, UniProt Q00535); test: Z'-LYTE kinase assay CDK5/p35; settings: read-out: Kinase inhibition, IC50 CDK5/p35
T2 construct: purchased Invitrogen PV3000
T2 sequence (Q00535 whole entry): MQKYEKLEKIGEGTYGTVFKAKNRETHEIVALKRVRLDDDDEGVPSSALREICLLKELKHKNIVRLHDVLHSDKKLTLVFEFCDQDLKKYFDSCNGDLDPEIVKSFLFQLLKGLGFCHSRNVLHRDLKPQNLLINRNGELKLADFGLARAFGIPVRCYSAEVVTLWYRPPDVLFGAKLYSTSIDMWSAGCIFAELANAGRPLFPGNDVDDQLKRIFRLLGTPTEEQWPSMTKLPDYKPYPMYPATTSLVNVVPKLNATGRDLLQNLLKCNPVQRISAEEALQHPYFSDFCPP
T2 sequence (Q15078 whole entry partner): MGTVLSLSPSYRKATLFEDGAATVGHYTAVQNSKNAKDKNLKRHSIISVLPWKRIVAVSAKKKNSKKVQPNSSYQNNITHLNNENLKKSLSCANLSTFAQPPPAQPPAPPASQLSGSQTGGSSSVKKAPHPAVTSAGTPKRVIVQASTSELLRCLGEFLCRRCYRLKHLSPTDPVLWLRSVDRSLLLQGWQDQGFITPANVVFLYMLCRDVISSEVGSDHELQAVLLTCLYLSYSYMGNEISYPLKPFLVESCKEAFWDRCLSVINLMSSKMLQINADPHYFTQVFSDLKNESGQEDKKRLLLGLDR
Method: as §1

Aurora B = Aurora B (Homo sapiens, UniProt Q96GD4); test: Kinase assay Aurora B (Table I); settings: read-out: Kinase inhibition, IC50 Aurora B
Sequence of Aurora B (Q96GD4 whole entry): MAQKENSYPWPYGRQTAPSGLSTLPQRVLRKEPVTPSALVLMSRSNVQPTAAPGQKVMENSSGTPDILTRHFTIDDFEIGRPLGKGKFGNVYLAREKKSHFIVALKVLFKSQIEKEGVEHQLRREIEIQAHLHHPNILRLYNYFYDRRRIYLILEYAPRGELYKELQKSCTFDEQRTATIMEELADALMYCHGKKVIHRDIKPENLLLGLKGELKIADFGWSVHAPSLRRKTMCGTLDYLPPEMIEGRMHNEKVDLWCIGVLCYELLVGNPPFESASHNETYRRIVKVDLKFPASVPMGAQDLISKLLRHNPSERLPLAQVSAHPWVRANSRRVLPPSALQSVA
Method: [The source words this procedure for another target and reports this target under the same test.] as §1

CDK9T1 = CDK9T1 (Homo sapiens, UniProt P50750); test: Kinase assay CDK9T1 (Table I); settings: read-out: Kinase inhibition, IC50 CDK9T1
Sequence of CDK9T1 (P50750 whole entry): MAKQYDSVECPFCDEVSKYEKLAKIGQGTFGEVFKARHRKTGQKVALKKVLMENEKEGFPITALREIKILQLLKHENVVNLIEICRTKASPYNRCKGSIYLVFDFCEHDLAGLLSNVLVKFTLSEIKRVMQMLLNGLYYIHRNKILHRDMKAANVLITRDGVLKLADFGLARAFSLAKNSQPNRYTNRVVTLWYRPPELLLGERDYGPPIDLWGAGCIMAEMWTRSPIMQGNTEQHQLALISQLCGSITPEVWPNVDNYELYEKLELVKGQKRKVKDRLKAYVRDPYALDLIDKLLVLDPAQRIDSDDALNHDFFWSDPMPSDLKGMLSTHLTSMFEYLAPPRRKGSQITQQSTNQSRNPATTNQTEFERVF
Sequence of CDK9T1 (O60563 whole entry partner): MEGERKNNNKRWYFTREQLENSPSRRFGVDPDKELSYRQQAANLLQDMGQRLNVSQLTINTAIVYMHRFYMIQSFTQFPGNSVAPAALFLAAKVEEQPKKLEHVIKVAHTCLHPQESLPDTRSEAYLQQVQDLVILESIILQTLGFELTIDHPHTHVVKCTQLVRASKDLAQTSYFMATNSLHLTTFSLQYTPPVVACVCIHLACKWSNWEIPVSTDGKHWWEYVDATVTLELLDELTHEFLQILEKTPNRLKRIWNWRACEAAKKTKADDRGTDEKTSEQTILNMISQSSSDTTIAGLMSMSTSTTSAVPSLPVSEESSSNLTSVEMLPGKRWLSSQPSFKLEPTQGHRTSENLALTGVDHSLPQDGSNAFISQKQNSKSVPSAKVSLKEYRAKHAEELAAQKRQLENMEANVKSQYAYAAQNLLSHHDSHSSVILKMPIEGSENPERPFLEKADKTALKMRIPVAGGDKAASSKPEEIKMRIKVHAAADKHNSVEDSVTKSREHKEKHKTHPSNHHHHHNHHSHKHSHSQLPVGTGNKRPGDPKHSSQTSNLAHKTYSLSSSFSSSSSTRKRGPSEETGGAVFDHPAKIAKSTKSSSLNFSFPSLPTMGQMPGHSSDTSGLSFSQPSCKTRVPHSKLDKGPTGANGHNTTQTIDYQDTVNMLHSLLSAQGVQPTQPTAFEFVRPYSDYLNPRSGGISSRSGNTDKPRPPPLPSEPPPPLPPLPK
Method: [The source words this procedure for another target and reports this target under the same test.] as §1

CDK2/cyclinA = biological target: T3, CDK2/cyclinA (Homo sapiens, UniProt P24941); test: Z'-LYTE kinase assay CDK2/cyclinA; settings: read-out: Kinase inhibition, IC50 CDK2A
T3 construct: purchased Invitrogen PV3267
Method: as §1

Aurora A = biological target: T4, Aurora A (Homo sapiens, UniProt O14965); test: Z'-LYTE kinase assay Aurora A; settings: read-out: Kinase inhibition, IC50 Aurora A
T4 construct: purchased Invitrogen PV3612
T4 sequence (O14965 1-403): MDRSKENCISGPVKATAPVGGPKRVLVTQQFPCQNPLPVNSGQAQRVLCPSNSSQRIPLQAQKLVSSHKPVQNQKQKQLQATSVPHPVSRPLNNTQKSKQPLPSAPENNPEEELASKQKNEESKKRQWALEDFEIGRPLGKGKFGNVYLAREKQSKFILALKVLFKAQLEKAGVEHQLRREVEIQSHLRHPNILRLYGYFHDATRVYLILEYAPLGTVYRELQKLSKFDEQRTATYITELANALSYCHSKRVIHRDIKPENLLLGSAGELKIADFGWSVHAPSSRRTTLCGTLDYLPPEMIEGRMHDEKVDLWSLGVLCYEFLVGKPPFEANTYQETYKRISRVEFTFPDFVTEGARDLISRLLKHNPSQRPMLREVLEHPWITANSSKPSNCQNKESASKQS
Method: as §1

T1 sequence (P06493 whole entry): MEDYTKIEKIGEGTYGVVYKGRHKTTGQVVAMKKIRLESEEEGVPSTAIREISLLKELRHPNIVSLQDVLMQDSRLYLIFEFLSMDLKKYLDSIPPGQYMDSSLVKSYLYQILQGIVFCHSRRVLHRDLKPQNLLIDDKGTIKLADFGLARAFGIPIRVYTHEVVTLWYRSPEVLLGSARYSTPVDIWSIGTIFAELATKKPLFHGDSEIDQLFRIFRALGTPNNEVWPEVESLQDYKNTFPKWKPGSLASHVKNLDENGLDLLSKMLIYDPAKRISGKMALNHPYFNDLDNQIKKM
T1 sequence (P14635 whole entry partner): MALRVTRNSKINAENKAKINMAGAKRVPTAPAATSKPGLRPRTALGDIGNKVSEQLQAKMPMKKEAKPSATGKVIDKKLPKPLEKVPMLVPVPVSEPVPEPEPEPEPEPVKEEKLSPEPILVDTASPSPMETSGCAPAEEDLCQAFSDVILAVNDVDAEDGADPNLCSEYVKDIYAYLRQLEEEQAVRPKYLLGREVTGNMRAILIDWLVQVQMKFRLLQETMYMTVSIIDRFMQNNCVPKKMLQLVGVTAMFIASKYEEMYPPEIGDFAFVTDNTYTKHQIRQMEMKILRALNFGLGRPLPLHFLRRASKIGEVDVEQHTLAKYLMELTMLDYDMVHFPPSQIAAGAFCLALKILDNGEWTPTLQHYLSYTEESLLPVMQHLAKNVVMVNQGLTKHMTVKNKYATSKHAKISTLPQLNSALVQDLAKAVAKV

| Compound | IC50 (CDK1/cyclinB) [µM] | IC50 (CDK5/p35) [µM] | IC50 (Aurora B) [µM] | IC50 (CDK9T1) [µM] | IC50 (CDK2/cyclinA) [µM] | IC50 (Aurora A) [µM] |
| --- | --- | --- | --- | --- | --- | --- |
| Cn1cc(-c2ccnc(Nc3ccc(O)cc3Cl)n2)c2ccccc21 [Compound 3, 3-Chloro-4-(4-(1-methyl-1H-indol-3-yl)pyrimidin-2-ylamino)phenol] | > 10 | > 10 | > 10 | > 10 | 7.53 | > 10 |
| CCn1cc(-c2ccnc(Nc3c(C)cc(O)cc3C)n2)c2ccccc21 [Compound 9, 4-[4-(1-Ethyl-1H-indol-3-yl)-pyrimidin-2-ylamino]-3,5-dimethyl-phenol] | > 10 | > 10 | > 10 | > 10 | > 100 | > 10 |
| CCn1cc(-c2ccnc(Nc3ccc(O)cc3)n2)c2cccnc21 [Compound 12, 4-(4-(1-Ethyl-1H-pyrrolo[2,3-b]pyridin-3-yl)pyrimidin-2-ylamino)phenol] | 4.11 | 5.54 | 0.75 | > 10 | 0.172 | 0.27 |
| Cc1cc(O)cc(C)c1Nc1nccc(-c2cn(C)c3ccccc23)n1 [Compound 5, 3,5-Dimethyl-4-[4-(1-methyl-1H-indol-3-yl)-pyrimidin-2-ylamino]-phenol] | > 10 | > 10 | > 10 |  | ≥ 100 | > 10 |
| CCn1cc(-c2ccnc(Nc3ccc(O)cc3)n2)c2ccccc21 [Compound 6, 4-[4-(1-Ethyl-1H-indol-3-yl)-pyrimidin-2-ylamino]-phenol] | 1.21 | 0.522 | 0.47 | 0.026 | 0.003 | 1.05 |
| CCn1cc(-c2ccnc(Nc3cccc(O)c3)n2)c2ccccc21 [Compound 7, 3-[4-(1-Ethyl-1H-indol-3-yl)-pyrimidin-2-ylamino]-phenol] | 1.34 | 0.375 | 1.01 | 0.029 | 0.002 | 5.84 |
| Oc1cccc(Nc2nccc(-c3cn(Cc4ccccc4)c4ccccc34)n2)c1 [Compound 11, 3-[4-(1-Benzyl-1H-indol-3-yl)-pyrimidin-2-ylamino]-phenol] | 4.82 | > 10 | > 10 | 1.17 | 4.05 | 4.67 |
| Oc1ccc(Nc2nccc(-c3cn(Cc4ccccc4)c4ccccc34)n2)cc1 [Compound 10, 4-[4-(1-Benzyl-1H-indol-3-yl)-pyrimidin-2-ylamino]-phenol] | 2.36 | 4.37 |  | 0.67 | 1.17 | 4.22 |
| CCn1cc(-c2ccnc(Nc3ccc(O)cc3C)n2)c2ccccc21 [Compound 8, 4-[4-(1-Ethyl-1H-indol-3-yl)-pyrimidin-2-ylamino]-3-methyl-phenol] | 8.95 | > 10 | > 10 | > 10 | 0.411 | > 10 |
| Cc1cc(O)ccc1Nc1nccc(-c2cn(C)c3ccccc23)n1 [Compound 4, 3-Methyl-4-[4-(1-methyl-1H-indol-3-yl)-pyrimidin-2-ylamino]-phenol] | > 10 | > 10 | > 10 |  | 1.77 | > 10 |

Other lines, results leading:

| IC50 (CDK1/cyclinB) [µM] | IC50 (CDK5/p35) [µM] | IC50 (Aurora B) [µM] | IC50 (CDK9T1) [µM] | IC50 (CDK2/cyclinA) [µM] | IC50 (Aurora A) [µM] | Compound |
| --- | --- | --- | --- | --- | --- | --- |
| 0.09 | 0.1 | 0.93 | 0.079 | 0.0043 | 0.8 | CCn1cc(-c2ccnc(Nc3cccc(O)c3)n2)c2ccnc(Cl)c21 [Compound 72, 3-(4-(7-Chloro-1-ethyl-1H-pyrrolo[2,3-c]pyridin-3-yl)pyrimidin-2-ylamino)phenol] |
| 0.19 | 0.35 | > 10 | 0.095 | 0.016 | 2.46 | CCn1cc(-c2ccnc(Nc3ccc(O)cc3)n2)c2ccnc(Cl)c21 [Compound 70, 4-(4-(7-Chloro-1-ethyl-1H-pyrrolo[2,3-c]pyridin-3-yl)pyrimidin-2-ylamino)phenol] |
| 1.57 | 0.62 | > 10 | 0.35 | 1.34 | > 10 | CCCn1cc(-c2ccnc(Nc3cccc(C(=O)N4CCN(C)CC4)c3)n2)c2cccnc21 [Compound 34, (4-Methylpiperazin-1-yl)(3-(4-(1-propyl-1H-pyrrolo[2,3-b]pyridin-3-yl)pyrimidin-2-ylamino)phenyl)methanone] |
| 0.03 | 0.1 | 5.8 | 0.052 | 0.01 | 4.9 | CCCn1cc(-c2ccnc(Nc3ccc(S(N)(=O)=O)cc3)n2)c2cccnc21 [Compound 23, 4-(4-(1-Propyl-1H-pyrrolo[2,3-b]pyridin-3-yl)pyrimidin-2-ylamino)benzenesulfonamide] |
| 1.18 | 1.96 | 2.05 | 0.45 | 0.061 | 0.71 | CCn1cc(-c2ccnc(Nc3cccc(O)c3)n2)c2cccnc21 [Compound 13, 3-(4-(1-Ethyl-1H-pyrrolo[2,3-b]pyridin-3-yl)pyrimidin-2-ylamino)phenol] |
| > 10 | > 10 | > 10 | 0.79 | 1.07 | 1.34 | CCn1cc(-c2ccnc(Nc3cccc([N+](=O)[O-])c3)n2)c2cccnc21 [Compound 14, 4-(1-Ethyl-1H-pyrrolo[2,3-b]pyridin-3-yl)-N-(3-nitrophenyl)pyrimidin-2-amine] |
